Data: the RepoRT retention time repository

Test: RP, Waters ACQUITY UPLC BEH C18, 150 × 2.1 mm, 1.7 µm, 40 °C, 0.4 mL/min, estimated dead time 0.83 min; A: water + 0.1% formic acid, pH 3; B: acetonitrile; gradient (min/%B) 0/2 1.5/8 3.5/14 6/16 8/25 9.2/98 10.5/2 12/2
Settings: stereoisomer not certain

LC retention time [min] | SMILES
4.93 | O=c1cc(-c2ccc(O)cc2)oc2c(C3OCC(O)C(O)C3O)c(O)c(C3OC(CO)C(O)C(O)C3O)c(O)c12 (stereo not drawn) [apigenin 6-C-glucoside-8-C-arabinoside]
10.6 | COc1cc(-c2cc(=O)c3c(O)cc(OC4OC(COC(=O)C=Cc5ccc(O)cc5)C(O)C(O)C4O)cc3o2)ccc1O (stereo not drawn) [chrysoeriol 7-O-[6''-coumaroyl]-glucoside]
8.42 | COc1cc(-c2cc(=O)c3c(O)cc(OC4OC(COC5OC(CO)C(O)C(O)C5O)C(O)C(O)C4O)cc3o2)ccc1O (stereo not drawn) [chrysoeriol 7-O-diglucoside]
7.88 | COc1cc(C=CC(=O)OCC2OC(OC3C(c4c(O)cc5oc(-c6ccc(O)cc6)cc(=O)c5c4O)OC(CO)C(O)C3O)C(O)C(O)C2O)ccc1O (stereo not drawn) [feruloyl-isovitexin 2''-O-glucoside]
4.52 | NC(N)=NCCCCNC(=O)C=Cc1ccc2c(c1)C(C(=O)NCCCCN=C(N)N)C(c1ccc(O)cc1)O2 (stereo not drawn) [hordatine A]
4.42 | COc1cc(C=CC(=O)NCCCCN=C(N)N)cc2c1OC(c1ccc(O)cc1)C2C(=O)NCCCCN=C(N)N (stereo not drawn) [hordatine B]
6.23 | COc1cc(C=CC(=O)OCC2OC(Oc3cc4oc(-c5ccc(O)c(O)c5)cc(=O)c4c(O)c3C3OC(CO)C(O)C(O)C3O)C(O)C(O)C2O)ccc1O (stereo not drawn) [isoorientin 7-O-[6''-feruloyl]-glucoside]
4.69 | CC1OC(OC2C(Oc3cc4oc(-c5ccc(O)c(O)c5)cc(=O)c4c(O)c3C3OC(CO)C(O)C(O)C3O)OC(CO)C(O)C2O)C(O)C(O)C1O (stereo not drawn) [isoorientin 7-O-rhamnosylglucoside]
6.97 | COc1cc(-c2cc(=O)c3c(O)c(C4OC(CO)C(O)C(O)C4OC4OCC(O)C(O)C4O)c(O)cc3o2)ccc1O (stereo not drawn) [isoscoparin 2''-O-arabinoside]
7.62 | COc1cc(-c2cc(=O)c3c(O)c(C4OC(CO)C(O)C(O)C4O)c(OC4OC(COC(=O)C=Cc5cc(OC)c(O)c(OC)c5)C(O)C(O)C4O)cc3o2)ccc1O (stereo not drawn) [isoscoparin 7-O-[6''-sinapoyl]-glucoside]
5.62 | O=c1cc(-c2ccc(O)cc2)oc2cc(O)c(C3OC(CO)C(O)C(O)C3OC3OCC(O)C(O)C3O)c(O)c12 (stereo not drawn) [isovitexin 2''-O-arabinoside]
4.61 | O=c1cc(-c2ccc(O)cc2)oc2cc(OC3OC(CO)C(O)C(O)C3O)c(C3OC(CO)C(O)C(O)C3O)c(O)c12 (stereo not drawn) [isovitexin 7-O-glucoside (saponarin)]
4.81 | CC1OC(OC2C(Oc3cc4oc(-c5ccc(O)cc5)cc(=O)c4c(O)c3C3OC(CO)C(O)C(O)C3O)OC(CO)C(O)C2O)C(O)C(O)C1O (stereo not drawn) [isovitexin 7-O-rhamnosylglucoside]
5.25 | O=c1cc(-c2ccc(O)cc2)oc2c(C3OC(CO)C(O)C(O)C3O)c(O)c(C3OC(CO)C(O)C(O)C3O)c(O)c12 (stereo not drawn) [isovitexin 8-C-glucoside]
4.87 | O=c1cc(-c2ccc(O)c(O)c2)oc2c(C3OC(CO)C(O)C(O)C3O)c(O)c(C3OCC(O)C(O)C3O)c(O)c12 (stereo not drawn) [luteolin 6-C-arabinoside 8-C-glucoside]
9.65 | COc1cc(-c2cc(=O)c3c(O)c(C4OC(CO)C(O)C(O)C4OC4OCC(OC(=O)C=Cc5cc(OC)c(O)c(OC)c5)C(O)C4O)c(O)cc3o2)ccc1O (stereo not drawn) [sinapoyl-isoscoparin 2''-O-arabinoside]
9.32 | COc1cc(C=CC(=O)OC2COC(OC3C(c4c(O)cc5oc(-c6ccc(O)cc6)cc(=O)c5c4O)OC(CO)C(O)C3O)C(O)C2O)cc(OC)c1O (stereo not drawn) [sinapoyl-isovitexin 2''-O-arabinoside]
4.56 | COc1cc(C=CC(=O)OCC2OC(Oc3cc(O)c4c(=O)cc(-c5cc(OC)c(O)c(OC)c5)oc4c3)C(O)C(O)C2O)cc(OC)c1O (stereo not drawn) [sinapoyl-tricin 7-O-glucoside]
